Source: patent US20040249122A1, “Cationic, amphipathic beta-sheet peptides and uses thereof” (priority 2003, published 2004)
Converted amounts (≈) assume the structure as drawn. “Also recorded” adds a separate entry of the source. Where a SMILES comes first, the peptide text is derived from it. The star is where a group is joined. Octanoyl = CCCCCCCC(=O)*

Columns and labels:
[1] = system: Escherichia coli (ATCC 25922); type: cell-based; conditions: ATCC 25922
Protocol: (§1) Antimicrobial and Hemolytic Assays. Antimicrobial susceptibility testing against Staphylococcus aureus (ATCC 29213), Escherichia coli (ATCC 25922), and Pseudomonas aeruginosa (ATCC 27853) was performed using a modification of the National Committee for Clinical Laboratory Standards microdilution broth assay (22). Mueller-Hinton broth (BBL) was used for diluting the peptide stock solution and for diluting the bacterial inoculum. The inoculum was prepared from mid-logarithmic phase cultures. […] The final concentration of peptide solution ranged-from 0.25 to 256 μg/mL in two-fold dilutions. The final concentration of bacteria in the wells was 5×10^5 CFU/mL. Peptides were tested in duplicate. In addition to the test peptide, three standard peptides and a non-treated growth control were included to validate the assay. The microtiter plates were incubated overnight at 37° C. and the absorbance was measured at 600 nm. […] After incubation at 37° C. for 30 min, the suspension was centrifuged at 10,000×g for 10 min and the absorbance at 400 nm was measured.

[2] = system: Pseudomonas aeruginosa (ATCC 27853); type: cell-based; conditions: ATCC 27853
Protocol: as §1

[3] = system: Staphylococcus aureus (ATCC 29213); type: cell-based; conditions: ATCC 29213
Protocol: as §1

[4] = system: E. coli, S. aureus, and P. aeruginosa; type: cell-based
Protocol: Antimicrobial and Hemolytic Assays. Antimicrobial susceptibility testing against Staphylococcus aureus (ATCC 29213), Escherichia coli (ATCC 25922), and Pseudomonas aeruginosa (ATCC 27853) was performed using a modification of the National Committee for Clinical Laboratory Standards microdilution broth assay (22). Mueller-Hinton broth (BBL) was used for diluting the peptide stock solution and for diluting the bacterial inoculum. The inoculum was prepared from mid-logarithmic phase cultures. Microtiter plate wells received aliquots-of 100 μL each of the inoculum and peptide dilution. The final concentration of peptide solution ranged-from 0.25 to 256 μg/mL in two-fold dilutions. The final concentration of bacteria in the wells was 5×10^5 CFU/mL. Peptides were tested in duplicate. In addition to the test peptide, three standard peptides and a non-treated growth control were included to validate the assay. The microtiter plates were incubated overnight at 37° C. and the absorbance was measured at 600 nm. […] Hemolysis at peptide concentrations of 500 μg/mL was determined using a 5% suspension of freshly drawn human erythrocytes, which had been washed twice in phosphate buffered saline. After incubation at 37° C. for 30 min, the suspension was centrifuged at 10,000×g for 10 min and the absorbance at 400 nm was measured. Complete hemolysis was determined by adding 0.2% Triton X-100 in place of the peptide.

[5] = Peptide-induced leakage from calcein-loaded LUV
Protocol: Peptide-Induced Leakage from Calcein-Loaded LUV. The ability of the peptides to release calcein (MW 623) from LUV of varying lipid composition was compared. LUV were prepared as above, except that-the buffer consisted of 50 mM HEPES, 100 mM NaCl, 0.3 mM EDTA, 80 mM calcein, pH 7.4. Calcein-loaded vesicles were separated from free calcein by size-exclusion chromatography using a Sephadex G-50 column and calcein-free buffer. Calcein leakage was monitored using a Perkin-Elmer LS-500 luminescence spectrometer by measuring the time-dependent increase in fluorescence of calcein (excitation=490 nm, emission=520 nm). LUV containing 8 nmoles of lipid were added to 1.5 mL of buffer in a stirred cuvet at 25° C. An aliquot of peptide was added to achieve the desired lipid-to-peptide ratio (256 to 8). Complete leakage was determined by the addition of 20 μL of 10% Triton X-100. Each value represents at least nine different measurements using at least three different LUV preparations.

| MIC E. coli [1] [µg/mL] | MIC Pseud. aerug [2] [µg/mL] | MIC Staph. aureus [3] [µg/mL] | MIC values [4] [µg/mL] | SMILES | antimicrobial activity (in words) [4] | calcein leakage from LUV (in words) ([5]; LUVs from E. coli lipids) | calcein leakage from LUV (in words) ([5]; POPC (PC) LUV) |
| --- | --- | --- | --- | --- | --- | --- | --- |
| 8 (≈ 3.75 µM) | 32 (≈ 15 µM) | 8 to 16 | – | CC(C)C[C@H](NC(=O)CNC(=O)[C@H](CCCCN)NC(=O)[C@H](C)NC(=O)[C@H](CC(C)C)NC(=O)[C@H](CCCCN)NC(=O)[C@H](C)NC(=O)[C@H](CC(C)C)NC(=O)CNC(=O)[C@H](CCCCN)NC(=O)[C@H](C)NC(=O)[C@H](Cc1c[nH]c2ccccc12)NC(=O)[C@H](CCCCN)NC(=O)[C@H](C)NC(=O)[C@H](CC(C)C)NC(=O)CNC(=O)[C@H](CCCCN)NC(=O)[C@H](C)NC(=O)[C@H](CC(C)C)NC(=O)[C@@H](N)CCCCN)C(=O)N[C@@H](C)C(N)=O [1,4-Hept, KLAKGLAKWAKGLAKLAKGLA-NH2] (H-KLAKGLAKWAKGLAKLAKGLA-NH2; N-terminus assumed) | relatively low MIC values | – | – |
| 8 (≈ 3.75 µM) | 16 (≈ 7.49 µM) | 4 (≈ 1.87 µM) | – | CC(C)C[C@H](NC(=O)[C@H](CCCCN)NC(=O)CNC(=O)[C@H](C)NC(=O)[C@H](CC(C)C)NC(=O)[C@H](CCCCN)NC(=O)[C@H](C)NC(=O)[C@H](CC(C)C)NC(=O)[C@H](CCCCN)NC(=O)CNC(=O)[C@H](C)NC(=O)[C@H](Cc1c[nH]c2ccccc12)NC(=O)[C@H](CCCCN)NC(=O)[C@H](C)NC(=O)[C@H](CC(C)C)NC(=O)[C@H](CCCCN)NC(=O)CNC(=O)[C@H](C)NC(=O)[C@H](CC(C)C)NC(=O)[C@@H](N)CCCCN)C(=O)N[C@@H](C)C(N)=O [1,5-Hept, KLAGKLAKWAGKLAKLAGKLA-NH2] (H-KLAGKLAKWAGKLAKLAGKLA-NH2; N-terminus assumed) | relatively low MIC values | – | – |
| >256 | >256 | >256 | – | CC(C)C[C@H](NC(=O)CNC(=O)[C@H](C)NC(=O)[C@H](CC(C)C)NC(=O)[C@H](CCCCN)NC(=O)[C@H](C)NC(=O)[C@H](CCCCN)NC(=O)[C@H](CC(C)C)NC(=O)CNC(=O)[C@H](C)NC(=O)[C@H](Cc1c[nH]c2ccccc12)NC(=O)[C@H](CCCCN)NC(=O)[C@H](C)NC(=O)[C@H](CCCCN)NC(=O)[C@H](CC(C)C)NC(=O)CNC(=O)[C@H](C)NC(=O)[C@H](CC(C)C)NC(=O)[C@@H](N)CCCCN)C(=O)N[C@@H](CCCCN)C(=O)N[C@@H](C)C(N)=O [1,6-Hept, KLAGLKAKWAGLKAKLAGLKA-NH2] (H-KLAGLKAKWAGLKAKLAGLKA-NH2; N-terminus assumed) | devoid of antimicrobial activity | – | – |
| 8 (≈ 3.75 µM) | 16 (≈ 7.49 µM) | 16 (≈ 7.49 µM) | – | CC(C)C[C@H](NC(=O)CNC(=O)[C@H](C)NC(=O)[C@H](CC(C)C)NC(=O)[C@H](CCCCN)NC(=O)[C@H](CCCCN)NC(=O)[C@H](C)NC(=O)[C@H](CC(C)C)NC(=O)CNC(=O)[C@H](C)NC(=O)[C@H](Cc1c[nH]c2ccccc12)NC(=O)[C@H](CCCCN)NC(=O)[C@H](CCCCN)NC(=O)[C@H](C)NC(=O)[C@H](CC(C)C)NC(=O)CNC(=O)[C@H](C)NC(=O)[C@H](CC(C)C)NC(=O)[C@@H](N)CCCCN)C(=O)N[C@@H](C)C(=O)N[C@@H](CCCCN)C(N)=O [1,7-Hept, KLAGLAKKWAGLAKKLAGLAK-NH2] (H-KLAGLAKKWAGLAKKLAGLAK-NH2; N-terminus assumed) | relatively low MIC values | – | – |
| 32 (≈ 18 µM) | 16 (≈ 8.99 µM) | 16 (≈ 8.99 µM) | 4 to 16 | CC(C)C[C@H](NC(=O)[C@H](CCCCN)NC(=O)[C@H](CC(C)C)NC(=O)[C@H](CCCCN)NC(=O)[C@H](CC(C)C)NC(=O)[C@H](CCCCN)NC(=O)[C@H](Cc1c[nH]c2ccccc12)NC(=O)[C@H](CCCCN)NC(=O)[C@H](CC(C)C)NC(=O)[C@H](CCCCN)NC(=O)[C@H](CC(C)C)NC(=O)[C@H](CCCCN)NC(=O)[C@H](CC(C)C)NC(=O)[C@@H](N)CCCCN)C(N)=O [KL-14, K L K L K L K W K L K L K L-NH2] (H-KLKLKLKWKLKLKL-NH2; N-terminus assumed) | – | highly effective | quite lytic |
| 64 (≈ 28.3 µM) | 32 (≈ 14.1 µM) | 16 (≈ 7.07 µM) | 4 to 16 | CC(C)C[C@H](NC(=O)[C@H](CCCCN)NC(=O)[C@H](CC(C)C)NC(=O)[C@H](CCCCN)NC(=O)[C@H](CC(C)C)NC(=O)[C@H](CCCCN)NC(=O)[C@H](CC(C)C)NC(=O)[C@H](CCCCN)NC(=O)[C@H](CC(C)C)NC(=O)[C@H](CCCCN)NC(=O)[C@H](Cc1c[nH]c2ccccc12)NC(=O)[C@H](CCCCN)NC(=O)[C@H](CC(C)C)NC(=O)[C@H](CCCCN)NC(=O)[C@H](CC(C)C)NC(=O)[C@H](CCCCN)NC(=O)[C@H](CC(C)C)NC(=O)[C@@H](N)CCCCN)C(N)=O [KL-18, K L K L K L K W K L K L K L K L K L-NH2] (H-KLKLKLKWKLKLKLKLKL-NH2; N-terminus assumed) | – | highly effective | most potent; also recorded: quite lytic |
| 16 (≈ 10.3 µM) | 8 (≈ 5.16 µM) | 4 (≈ 2.58 µM) | – | CCCCCCCC(=O)N[C@@H](CCCCN)C(=O)N[C@@H](CC(C)C)C(=O)N[C@@H](CCCCN)C(=O)N[C@@H](Cc1c[nH]c2ccccc12)C(=O)N[C@@H](CCCCN)C(=O)N[C@@H](CC(C)C)C(=O)N[C@@H](CCCCN)C(=O)N[C@@H](CC(C)C)C(=O)N[C@@H](CCCCN)C(=O)N[C@@H](CC(C)C)C(=O)N[C@@H](CCCCN)C(N)=O [Oct-Beta-11, Oct- K L K W K L K L K L K-NH2] (Octanoyl-KLKWKLKLKLK-NH2) | reasonable antimicrobial activity | – | – |
| >256 | >256 | >256 | – | CCCCCCCC(=O)N[C@@H](CCCCN)C(=O)N[C@@H](Cc1c[nH]c2ccccc12)C(=O)NCC(=O)N[C@@H](C)C(=O)N[C@@H](CCCCN)C(=O)N[C@H](C(N)=O)[C@@H](C)CC [Oct-KIGAKI-6, Oct- K W G A K I-NH2] (Octanoyl-KWGAKI-NH2) | no activity | – | – |
